The text below walks through data of BindingDB's records for doi:10.7270/Q2Q52NH6 (Catholic University of Daegu, 2017).

The target in test [1] is T1, Tyrosine-protein phosphatase non-receptor type 1 (Homo sapiens, UniProt P18031).
T1 sequence (P18031 whole entry): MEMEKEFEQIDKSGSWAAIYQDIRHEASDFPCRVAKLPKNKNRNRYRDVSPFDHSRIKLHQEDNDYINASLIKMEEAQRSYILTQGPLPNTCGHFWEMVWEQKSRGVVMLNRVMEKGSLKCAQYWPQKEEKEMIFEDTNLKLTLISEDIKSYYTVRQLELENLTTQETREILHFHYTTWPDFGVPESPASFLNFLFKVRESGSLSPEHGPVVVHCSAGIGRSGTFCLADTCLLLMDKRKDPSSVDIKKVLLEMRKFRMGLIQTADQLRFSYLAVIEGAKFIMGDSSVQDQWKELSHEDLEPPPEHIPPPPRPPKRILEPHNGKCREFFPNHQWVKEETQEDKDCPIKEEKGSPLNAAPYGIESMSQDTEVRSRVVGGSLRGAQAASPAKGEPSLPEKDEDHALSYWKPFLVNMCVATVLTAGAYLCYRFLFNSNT
In words: PTP1B Inhibitory Assay. The note with it: pH 6. The method, then:
PTP1B activity was measured by adding 2mM p-NPP and PTP1B in a 50 mM citrate buffer (pH 6.0, 0.1 M NaCl, 1 mMEDTA, and 1 mM dithiothreitol), with or without tested compounds. The plate was pre-incubated at 37 °C for 10 min, and then 50 μL of p-NPP in buffer was added. After incubating at 37 °C for 30 min, the reaction was then terminated with 1 N NaOH.

The target of another test is Acetylcholinesterase (Homo sapiens, UniProt P22303). In words: Acetylcholinesterase Inhibitory Assay. The note with it: pH 8; 25 °C. The method, then: Briefly, 140 μL of sodium phosphate buffer (pH 8.0), 20 μL of each tested compound with different concentrations (4, 20, and 100 μM) and 20 μL enzyme solution were mixed and incubated at room temperature for 15 min. The reactions were initiated by the addition of 10 μL of 0.01 M 5,5'-dithiobis(2-nitrobenzoic acid) (DTNB) and 10 μL of 0.075 ATCI. […] The reaction was independently experimented for three times and recorded in 96-well microplates using a microplate reader (VersaMax).

In test [2] the target is T1, Tyrosine-protein phosphatase non-receptor type 1. The test is described as follows: Kinetic Analysis. The protocol: The reaction mixtures contained in various different concentrations of p-NPP as a PTP1B substrate in the presence or absence of the active compound. The kinetic analysis was evaluated for Michaelis-Menten plot, Lineweaver-Burk plot, and Dixon plot. The Michaelis constant (Km), maximum velocity (Vmax), and the inhibition constants (Ki) were determined by using Sigma Plot software (13.0 software, SPCC Inc., Chicago, IL, USA).

Chain of Acetylcholinesterase (P22303 whole entry): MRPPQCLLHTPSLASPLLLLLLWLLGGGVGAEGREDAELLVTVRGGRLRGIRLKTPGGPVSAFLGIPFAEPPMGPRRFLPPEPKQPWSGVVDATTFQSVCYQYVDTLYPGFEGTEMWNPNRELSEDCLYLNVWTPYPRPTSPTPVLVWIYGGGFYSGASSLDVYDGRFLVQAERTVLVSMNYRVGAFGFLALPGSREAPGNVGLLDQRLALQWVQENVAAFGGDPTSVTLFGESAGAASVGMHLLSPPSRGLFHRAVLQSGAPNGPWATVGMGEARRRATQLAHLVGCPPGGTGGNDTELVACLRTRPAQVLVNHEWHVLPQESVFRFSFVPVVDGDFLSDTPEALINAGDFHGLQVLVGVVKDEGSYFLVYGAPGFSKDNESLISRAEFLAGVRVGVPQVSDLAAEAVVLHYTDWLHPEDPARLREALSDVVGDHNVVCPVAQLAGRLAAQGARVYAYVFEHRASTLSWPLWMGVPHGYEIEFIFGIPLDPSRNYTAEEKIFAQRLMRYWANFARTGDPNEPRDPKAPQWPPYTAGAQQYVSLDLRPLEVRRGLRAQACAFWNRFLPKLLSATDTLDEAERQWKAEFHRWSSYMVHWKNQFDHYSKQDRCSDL

Regarding `O=c1cc(-c2ccc(O)c(O)c2)oc2cc(O[C@@H]3O[C@H](CO)[C@@H](O)[C@H](O)[C@H]3O)cc(O)c12`, the IC50 (as a rule, the concentration that inhibits the measured activity by half) was 71.6 µM in test [1] and 74.7 µM against Acetylcholinesterase.

`O=c1c(O)c(-c2ccc(O)c(O)c2)oc2cc(O)cc(O)c12` [2-(3,4-dihydroxyphenyl)-3,5,7-trihydroxy-chromone;hydrate] came in with an IC50 against Acetylcholinesterase of 72.8 µM.

As to `O=c1c(O[C@@H]2O[C@H](CO)[C@@H](O)[C@H](O)[C@H]2O)c(-c2ccc(O)c(O)c2)oc2cc(O)cc(O)c12` [2-(3,4-dihydroxyphenyl)-5,7-dihydroxy-3-[(2S,3R,4S,5S,6R)-3,4,5-trihydroxy-6-(hydroxymethyl)oxan-2-yl]oxychromen-4-one], the IC50 was 100 µM in test [1] and 84.8 µM at Acetylcholinesterase.

For the molecule `COC(=O)[C@H]1O[C@@H](Oc2cc(O)c3c(=O)cc(-c4ccc(O)cc4)oc3c2)C(O[C@@H]2OC(CO)[C@@H](O)C(O)[C@@H]2O)[C@H]1O` (some centres not stated) [Agriflavone (2)], the IC50 was found to be 100 µM in test [1] and 63.4 µM on Acetylcholinesterase.

Regarding `O=C(O[C@H]1OC(CO)[C@@H](O)[C@@H]2OC(=O)c3cc(O)c(O)c(c3O)-c3c(O)c(O)cc(c3O)C(=O)OC12)c1cc(O)c(O)c(O)c1` (some centres not stated) [Agritannin (1)], the IC50 was 17 µM in test [1] and 60.2 µM on Acetylcholinesterase.

On to `O=c1oc2c(O)c(O)cc3c(=O)oc4c(O)c(O)cc1c4c23` [Elagic Acid], for which the IC50 in test [1] came out at 7.73 µM; at Acetylcholinesterase, 100 µM. Besides, affinity in test [2] was put at a Ki of 2800 nM.

For `O=c1c(O[C@@H]2O[C@H](CO)[C@@H](O)[C@H](O)[C@H]2O)c(-c2ccc(O)cc2)oc2cc(O)cc(O)c12` [Kaempferol 3-O-β-D-glucoside (6)], the IC50 was found to be 60.7 µM in test [1] and 89.6 µM at Acetylcholinesterase.

For the molecule `O=c1c(O)c(-c2ccc(O)cc2)oc2cc(O[C@@H]3O[C@H](CO)[C@@H](O)[C@H](O)[C@H]3O)cc(O)c12` [Kaempferol 7-O-β-D-glucoside (4)], the IC50 in test [1] is 100 µM; against Acetylcholinesterase it was 63.9 µM.

`O=C(O)[C@H]1O[C@@H](Oc2cc(O)c3c(=O)c(O)c(-c4ccc(O)cc4)oc3c2)[C@H](O)[C@@H](O)[C@@H]1O` [Kaempferol 7-O-β-D-glucuronide (5)]: the IC50 in test [1] was 48.3 µM; on Acetylcholinesterase, 64 µM.

As for `O=c1cc(-c2ccc(O)c(O[C@@H]3O[C@H](CO)[C@@H](O)[C@H](O)[C@H]3O)c2)oc2cc(O)cc(O)c12` [Luteolin 3'-O-β-D-glucoside (17)], the IC50 in test [1] was determined as 100 µM; against Acetylcholinesterase it was 74.6 µM.

As for `O=C(O)[C@H]1O[C@@H](Oc2cc(O)c3c(=O)cc(-c4ccc(O)c(O)c4)oc3c2)[C@H](O)[C@@H](O)[C@@H]1O` [Luteolin 7-O-β-D-glucuronide (14)], the IC50 in test [1] was determined as 38.1 µM; against Acetylcholinesterase it was 88.1 µM.

In the case of `O=C(OCCCCOc1cc(O)c2c(=O)cc(-c3ccc(O)c(O)c3)oc2c1)[C@H]1O[C@@H](O)[C@H](O)[C@@H](O)[C@@H]1O` [Luteolin 7-O-β-D-glucuronide butyl ester (16)], the IC50 in test [1] amounted to 100 µM; on Acetylcholinesterase it was 76.9 µM.

Take `O=C(OCOc1cc(O)c2c(=O)cc(-c3ccc(O)c(O)c3)oc2c1)[C@H]1O[C@@H](O)[C@H](O)[C@@H](O)[C@@H]1O` [Luteolin 7-O-β-D-glucuronide methyl ester (15)]: the IC50 in test [1] was found to be 49.1 µM; on Acetylcholinesterase, 65.9 µM.

Consider `O=c1cc(-c2ccc(O)cc2)oc2cc(O[C@@H]3O[C@H](CO)[C@@H](O)[C@H](O)[C@H]3O)cc(O)c12` [NSC-407303], for which the IC50 (in test [1]; at Acetylcholinesterase) was 100 µM throughout.

Take `O=c1cc(-c2ccc(O)cc2)oc2cc(O)cc(O)c12` [Naringenin, 18]: the IC50 in test [1] was found to be 100 µM; against Acetylcholinesterase, 64.3 µM.

Turning to `O=c1c(O)c(-c2ccc(O)c(O[C@@H]3O[C@H](CO)[C@@H](O)[C@H](O)[C@H]3O)c2)oc2cc(O)cc(O)c12` [Quercetin 3'-O-β-D-glucoside (12)], the IC50 in test [1] was determined as 100 µM; at Acetylcholinesterase, 89.2 µM.

Consider `O=C(O)[C@H]1O[C@@H](Oc2cc(O)c3c(=O)cc(-c4ccc(O)cc4)oc3c2)[C@H](O)[C@@H](O)[C@@H]1O` [apigenin-7-O-betaD-glucuronic acid], for which the IC50 in test [1] is 7.14 µM; on Acetylcholinesterase, 63 µM. The inhibition constant Ki (usually the equilibrium dissociation constant of an inhibitor or competing ligand from its target) in test [2] is 2600 nM.

For `COc1cc(C2Oc3c(OC)cc(CCCO)cc3C2CO)ccc1O[C@@H]1OC(CO)[C@@H](O)C(O)[C@@H]1O` (stereo partly drawn) [dihydrodehydrodiconifeyl alcohol 9'-O-β-D-glucose (19)], the results for the IC50 (in test [1]; on Acetylcholinesterase) were 100 µM and 92.8 µM, respectively.
